This passage reports ThS net change results from paper PMC7539012, “Hyperphosphorylated tau aggregation and cytotoxicity modulators screen identified prescription drugs linked to Alzheimer's disease and cognitive functions” (Scientific Reports, 2020).

Structures can show the parent of a compound that is named as a salt. Where a SMILES comes first, the peptide text is derived from it. [ ]: non-standard residue; d: D form. The star is where a group is joined. Sta = CC(C)C[C@H](N)[C@@H](O)CC(=O)O; Isovaleryl = CC(C)CC(=O)*

In one experiment the test system is T1, 1N4R p-tau.
T1 construct: made in house; host or cells: E. coli (PIMAX system)
Briefly: p-tau aggregation modulator screen of 1280-compound library (ThS fluorescence net change over 16 h).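 Note: 30 µM compound with 6 µM p-tau over 16 h.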 Type of experiment: biochemical.
Details: not given
`Clc1ccc(CO/N=C(\Cn2ccnc2)c2ccc(Cl)cc2Cl)c(Cl)c1` [Oxiconazole Nitrate] registered a ThS net change of 211. The same measure, in the same setting: next, `C[C@]12C/C(=C/O)C(=O)C[C@@H]1CC[C@@H]1[C@@H]2CC[C@@]2(C)[C@H]1CC[C@]2(C)O` [Oxymetholone]: 475.

On to `CC(=O)O[C@H]1C[C@@H]2CC[C@@H]3[C@H](CC[C@@]4(C)[C@H]3C[C@H]([N+]3(C)CCCCC3)[C@@H]4OC(C)=O)[C@@]2(C)C[C@@H]1[N+]1(C)CCCCC1` [Pancuronium bromide], for which the ThS net change is 491. The same measure, in the same setting: with `CCCCc1ccc2[nH]c(NC(=O)OC)nc2c1` [Parbendazole] the figure was 465.

For `NC[C@@H]1O[C@H](O[C@H]2[C@@H](O)[C@H](O[C@@H]3[C@@H](O)[C@H](N)C[C@H](N)[C@H]3O[C@H]3O[C@H](CO)[C@@H](O)[C@H](O)[C@H]3N)O[C@@H]2CO)[C@H](N)[C@@H](O)[C@@H]1O` [Paromomycin sulfate], the ThS net change came out at 472. Same read-out and setting: next, `Nc1nc2[nH]cc(CCc3ccc(C(=O)N[C@@H](CCC(=O)O)C(=O)O)cc3)c2c(=O)[nH]1` [Pemetrexed disodium]: 441; `Cc1cccn2c(=O)c(-c3nnn[nH]3)cnc12` [Pemirolast potassium]: 446.

Still in this experiment, the particulars now being: 1280-compound library screen; ThS fluorescence net change over 16 h.
As to `CCN(CC)CCc1nc(-c2ccccc2)no1.O=C(O)CC(O)(CC(=O)O)C(=O)O` [Oxalamine citrate salt], the ThS net change is on record as 410.

Compound `CCCOc1ccc2nc(NC(=O)OC)[nH]c2c1` [Oxibendazol] returned a ThS net change of 391. For `C=CCOc1ccccc1OCC(O)CNC(C)C` (stereo not drawn) [Oxprenolol hydrochloride], the ThS net change is 404. The same measure, in the same setting: with `COc1ccc(C(=O)c2ccccc2)c(O)c1` [Oxybenzone] the figure was 383; with `CCN(CC)CC#CCOC(=O)C(O)(c1ccccc1)C1CCCCC1` (stereo not drawn) [Oxybutynin chloride], 400; with `CCCCC1C(=O)N(c2ccccc2)N(c2ccc(O)cc2)C1=O` (stereo not drawn) [Oxyphenbutazone], 398.

`Cl.O=C(O)/C=C/c1ccc(Cn2ccnc2)cc1` [Ozagrel hydrochloride] had a ThS net change of 389.

`C#CCN(C)Cc1ccccc1` [Pargyline hydrochloride] showed a ThS net change of 389. On the same count and under the same terms, with `Nc1nc2c(ncn2CCC(CO)CO)c(=O)[nH]1` [Penciclovir] the figure was 397; with `CC(C)CC(=O)N[C@H](C(=O)N[C@H](C(=O)N[C@@H](CC(C)C)[C@@H](O)CC(=O)N[C@@H](C)C(=O)N[C@@H](CC(C)C)[C@@H](O)CC(=O)O)C(C)C)C(C)C` [Pepstatin A] (Isovaleryl-VV[Sta]A[Sta]-OH), 389. For `CCOc1ccc(NC(C)=O)cc1` [Phenacetin], the ThS net change stood at 400.

The same experiment, now with this note: library screen, ThS fluorescence net change over 16 h with p-tau.
`CN1CCCN=C1/C=C/c1cccc(O)c1.CN1CCCN=C1/C=C/c1cccc(O)c1.O=C(O)c1cc2ccccc2c(Cc2c(O)c(C(=O)O)cc3ccccc23)c1O` [Oxantel pamoate] gave a ThS net change of 208. Same read-out and setting: next, `CCn1cc(C(=O)O)c(=O)c2cc3c(cc21)OCO3` [Oxolinic acid]: 313; `CN(C)[C@@H]1C(O)=C(C(N)=O)C(=O)[C@@]2(O)C(O)=C3C(=O)c4c(O)cccc4[C@@](C)(O)[C@H]3[C@H](O)[C@@H]12` [Oxytetracycline dihydrate]: 220. Still for that read-out and setting: with `CC(=O)CCCCn1c(=O)c2c(ncn2C)n(C)c1=O` [Pentoxifylline] the figure was 314; with `CCCN1C[C@H](CSC)C[C@@H]2c3cccc4[nH]cc(c34)C[C@H]21` [Pergolide mesylate], 279.

The same experiment, now with this note: p-tau aggregation modulator screen of 1280-compound library; ThS fluorescence net change.
Regarding `NC(=O)N1c2ccccc2CC(=O)c2ccccc21` [Oxcarbazepine], the ThS net change is reported as 376.

Take `CN(C(=O)CN(CCO)CC(=O)N(C)C(C)(C)Cc1ccccc1)C(C)(C)Cc1ccccc1` [Oxethazaine]: the ThS net change is on record as 329. As to `Cc1cc(C(C)(C)C)c(O)c(C)c1CC1=NCCN1` [Oxymetazoline hydrochloride], the ThS net change is 339. The same measure, in the same setting: with `Fc1ccc([C@@H]2CCNC[C@H]2COc2ccc3c(c2)OCO3)cc1` [Paroxetine Hydrochloride] the figure was 363. The same measure, in the same setting: next, `CCn1cc(C(=O)O)c(=O)c2cc(F)c(N3CCN(C)CC3)cc21` [Pefloxacine]: 352; `CN1C(C)(C)CCCC1(C)C` [Pempidine tartrate]: 362. The compound `C[N+]1(CCCCC[N+]2(C)CCCC2)CCCC1.O=C([O-])C(O)C(O)C(=O)O.O=C([O-])C(O)C(O)C(=O)O` [Pentolinium bitartrate] displayed a ThS net change of 369. Same read-out and setting: with `C1CCC(C(CC2CCCCN2)C2CCCCC2)CC1` (stereo not drawn) [Perhexiline maleate] the figure was 342; with `OCCN1CCN(CCCN2c3ccccc3Sc3ccc(Cl)cc32)CC1` [Perphenazine], 328.

Still in this experiment, the particulars now being: p-tau aggregation modulator screen of 1280-compound library; […].
`C[C@]12COC(=O)C[C@@H]1CC[C@@H]1[C@@H]2CC[C@@]2(C)[C@H]1CC[C@]2(C)O` [Oxandrolone] gave a ThS net change of 338. Still for that read-out and setting: next, `CCCC(C)C1(CC)C(=O)NC(=O)NC1=O` (stereo not drawn) [Pentobarbital]: 354; `C1CCc2nnnn2CC1` [Pentylenetetrazole]: 365.

Still in this experiment, the particulars now being: p-tau aggregation modulator screen of the compound library, ThS fluorescence net change.
Turning to `O=C(O)CCc1nc(-c2ccccc2)c(-c2ccccc2)o1` [Oxaprozin], the ThS net change was 425. Still for that read-out and setting: next, `COC(=O)Nc1nc2ccc([S+]([O-])c3ccccc3)cc2[nH]1` (stereo not drawn) [Oxfendazol]: 433; `CC(=O)O[C@H]1C(=O)[C@@]2(C)[C@H]([C@H](OC(=O)c3ccccc3)[C@]3(O)C[C@H](OC(=O)[C@H](O)[C@@H](NC(=O)c4ccccc4)c4ccccc4)C(C)=C1C3(C)C)[C@]1(OC(C)=O)CO[C@@H]1C[C@@H]2O` [Paclitaxel]: 437.

As for `O=C1c2cccc3c2[C@H](CCC3)CN1[C@@H]1CN2CCC1CC2` [Palonosetron hydrochloride], the ThS net change came out at 458. On the same count and under the same terms, next, `CC(C)(CO)[C@@H](O)C(=O)NCCCO` [Panthenol (D)]: 429; `COc1ccnc(C[S+]([O-])c2nc3ccc(OC(F)F)cc3[nH]2)c1OC` (stereo not drawn) [Pantoprazole sodium]: 443. The compound `COc1ccc(Cc2nccc3cc(OC)c(OC)cc23)cc1OC` [Papaverine hydrochloride] displayed a ThS net change of 427. Still for that read-out and setting: next, `C=C1C(=O)O[C@H]2[C@H]1CC/C(C)=C/CC[C@@]1(C)O[C@@H]21` [Parthenolide]: 434; `CC(C)(C)NC[C@H](O)COc1ccccc1C1CCCC1` [Penbutolol sulfate]: 457.

Compound `N=C(N)c1ccc(OCCCCCOc2ccc(C(=N)N)cc2)cc1` [Pentamidine isethionate] registered a ThS net change of 479. On the same count and under the same terms, with `O=C(O)CN(CCN(CC(=O)O)CC(=O)O)CCN(CC(=O)O)CC(=O)O` [Pentetic acid] the figure was 480. As for `CCC[C@H](N[C@@H](C)C(=O)N1[C@H](C(=O)O)C[C@@H]2CCCC[C@@H]21)C(=O)OCC` [Perindopril], the ThS net change was found to be 426.

`O=C1[C@H]2CCCC[C@H]2C(=O)N1CCCCN1CCN(c2nsc3ccccc23)CC1` [Perospirone] showed a ThS net change of 426.
